# Positions count from the first letter of the chain named. Calls of active or inactive are those of the source. The rule behind the calls is not given here.
# Experiments:
# [1] = target: T1, 3-phosphoinositide-dependent protein kinase 1 (Homo sapiens, UniProt O15530); assay: Binding affinity to PDK1 (50 to 359) by isothermal titration calorimetry
# T1 sequence (O15530 whole entry): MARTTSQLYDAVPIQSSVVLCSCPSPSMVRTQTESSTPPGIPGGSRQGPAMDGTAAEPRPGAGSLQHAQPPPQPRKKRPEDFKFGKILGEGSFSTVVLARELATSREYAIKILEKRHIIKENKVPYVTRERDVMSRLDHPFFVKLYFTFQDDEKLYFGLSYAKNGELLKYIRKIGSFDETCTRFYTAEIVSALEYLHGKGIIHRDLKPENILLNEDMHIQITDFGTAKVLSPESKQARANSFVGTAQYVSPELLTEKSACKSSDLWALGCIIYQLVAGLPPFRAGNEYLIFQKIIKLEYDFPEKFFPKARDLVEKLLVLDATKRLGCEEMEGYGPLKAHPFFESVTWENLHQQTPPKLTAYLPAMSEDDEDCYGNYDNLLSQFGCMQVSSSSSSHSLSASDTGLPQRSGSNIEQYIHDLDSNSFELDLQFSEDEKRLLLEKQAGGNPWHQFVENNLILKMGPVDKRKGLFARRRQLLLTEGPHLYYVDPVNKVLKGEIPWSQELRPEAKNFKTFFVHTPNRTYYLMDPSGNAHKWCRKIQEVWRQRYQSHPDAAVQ
# [2] = target: T2, 3-phosphoinositide-dependent protein kinase 1 (Homo sapiens) (UniProt O15530)
# T2 sequence (whole entry): T1 sequence (O15530 whole entry)
# [3] = target: T2, 3-phosphoinositide-dependent protein kinase 1 (Homo sapiens); assay: Binding affinity to wild type recombinant GST-PDK1 expressed in HEK293 cells at 2 uM; assay type: cell-based
# [4] = test system: T3, 3-phosphoinositide-dependent protein kinase 1 (Homo sapiens), O15530 [V127T]; assay: Binding affinity to GST-PDK1 V127T mutant expressed in HEK293 cells at 2 uM; assay type: cell-based
# T3 sequence (whole entry): T1 sequence (O15530 whole entry) with V127T
Kd ([1]; read-out: Kd),Ka [2],Kd [1],Compound,also measured
20.9 µM,47800 M⁻¹,–,O=C(O)/C=C(/CCc1ccc(Br)cc1)c1ccccc1,–
10.4 µM,96600 M⁻¹,–,O=C(O)/C=C(/CCc1ccc(C(F)(F)F)cc1)c1ccccc1,–
13.9 µM,71800 M⁻¹,–,O=C(O)/C=C(/CCc1ccc(Cl)c(Cl)c1)c1ccccc1,–
13.8 µM,–,–,O=C(O)/C=C(/CCc1ccc2ccccc2c1)c1ccccc1,–
–,–,Not Active,O=C(O)/C=C(\CCC1C=Nc2ccccc21)c1ccccc1 (centres undefined),–
5.9 µM,–,–,O=C(O)/C=C(/CCc1ccc(Cl)cc1Cl)c1ccccc1,–
10 µM,–,–,O=C(O)/C=C(/CCc1c[nH]c2ccccc12)c1ccccc1,–
–,–,–,H-REPRILSEEEQEMFRDFDYIADEC-OH,Activity [3]: Active; Activity [4]: Active
–,–,Not Active,O=C(O)/C=C(\CCc1ccc(Br)cc1F)c1ccccc1,–
–,–,Not Active,O=C(O)/C=C(\CCc1ccc2ccccc2c1)c1ccccc1,–

# Reference: ChEMBL document CHEMBL1153471, “3,5-Diphenylpent-2-enoic acids as allosteric activators of the protein kinase PDK1: structure-activity relationships and thermodynamic characterization of binding as paradigms for PIF-binding pocket-targeting compounds” (J Med Chem, 2009)
